Experimental data taken from patent US20100247658A1, “ORGANIC COMPOUNDS” (priority 2007, published 2010).

Tests used:
[1] = micronised, heated for 5 hours at 70° C. in a thermal oven; cited from earlier work
[2] = prior to micronisation

Row | Compound | recrystallisation of amorphous parts / stable product [1] | dispersive surface energy [2]
1 | salbutamol sulfate | failed to lead to recrystallisation | 
2 | C[N+]1(C)CCC(OC(=O)C(O)(c2ccccc2)C2CCCC2)C1.[Br-] (centres unmarked) [glycopyrrolate, 3-[(cyclopentyl-hydroxyphenylacetyl)oxy]-1,1-dimethyl-pyrrolidinium bromide] |  | 48 mJ/m^2
